One test concerns mouse macrophages. The test can be described thus: stimulated release of TNF-α from mouse macrophages. In kind it is cell-based. Conditions: Macrophage. The text has this: EC50 values are derived from dose-response curves for the stimulated release of TNF-α from differentiated THP-1 cells or mouse macrophages are shown beneath each appropriate structural formula of Compounds 8-12. Half maximal effective concentration (EC50) refers to the concentration of a drug, antibody or toxicant that induces a response halfway between the baseline and maximum after a specified exposure time. It is commonly used as a measure of a drug's potency.

For test [1], the system named is differentiated human THP-1 cells. Kind of test: stimulated release of TNF-α from differentiated human THP-1 cells (ELISA, dose-response). The format is cell-based. Conditions: Homo sapiens. As for the experimental part: A screening campaign was conducted with nearly 100,000 compounds [(a) Whitby et al., Acc. Chem. Res. 2012, 45:1698-1709; and (b) Boger et al., Angew. Chem. Int. Ed. 2003, 42:4138-4176], using a newly developed functional assay that measured the stimulated release of TNF-α from treated human THP-1 cells partially differentiated along the macrophage line [unpublished results of the inventors and co-workers]. […] The libraries screened in the efforts represent a unique compound collection populated by nontraditional compounds [(a) Whitby et al., Acc. Chem. Res. 2012, 45:1698-1709; and (b) Boger et al., Angew. Chem. Int. Ed. 2003, 42:4138-4176] designed to target protein-protein [(a) Shaginian et al., J. Am. Chem. Soc. 2009, 131:5564-5572; and (b) Whitby et al., J. Am. Chem. Soc. 2011, 133:10184-10194] or protein-DNA interactions [Stover et al., J. Am. Chem. Soc. 2009, 131:3342-3348] as well as the major enzyme classes [Otrubova et al., Bioorg. Med. Chem. Lett. 2014, 24:3807-3813].
Hits were confirmed in an ELISA assay for stimulated TNF-α release from human PMA differentiated THP-1 cells and this assay was used for establishing dose-response curves and measured EC50 values.

Setting [2] is: Mus musculus, Scheme 1, footnote b, read-out: EC50 TNF-α release from mouse macrophages.
Setting [3] is: THP-1, Scheme 1, footnote a, read-out: EC50 TNF-α release from human THP-1 cells.
The mark [4] stands for this setting: Table 1, TNF-α release from mouse macrophages, read-out: EC50 (nM) (mouse).
The mark [5] stands for this setting: THP-1, Table 1, TNF-α release from human THP-1 cells, read-out: EC50 (nM) (THP-1).
[6] abbreviates: Table 2, TNF-α release from mouse macrophages, read-out: EC50 (nM) (mouse).
The mark [7] stands for this setting: THP-1, Table 2, TNF-α release from human THP-1 cells, read-out: EC50 (nM) (THP-1).
Setting [8] is: Table 3, TNF-α release from mouse macrophages, read-out: EC50 (nM) (mouse).
Where [9] appears, read: THP-1, Table 3, TNF-α release from human THP-1 cells, read-out: EC50 (nM) (THP-1).

Read-outs that look alike come from different tables or passages of the source.

`O=C(NCCc1ccc(F)cc1)[C@@H]1CN(C(=O)c2cccc(C(=O)N3C[C@@H](C(=O)NCCc4ccc(F)cc4)[C@H](C(=O)NCCc4ccc(F)cc4)C3)c2)C[C@H]1C(=O)NCCc1ccc(F)cc1` [Compound 103, (3S,3′S,4S,4′S)-1,1′-Isophthaloyl-bis-(N^3,N^4-bis(4-fluorophenethyl)pyrrolidine-3,4-dicarboxamide)]: the 50% effective concentration (EC50) with mouse macrophages (Table 7, TNF-α release from mouse macrophages, read-out: EC50 (nM) (mouse)) was greater than 5000 nM; in test [1] (THP-1, Table 7, TNF-α release from human THP-1 cells, read-out: EC50 (nM) (THP-1)), greater than 5000 nM.

On to `O=C(N[C@@H]1C[C@H]1c1ccccc1)[C@@H]1CN(C(=O)c2ccc(C(=O)N3C[C@@H](C(=O)N[C@@H]4C[C@H]4c4ccccc4)[C@H](C(=O)N[C@@H]4C[C@H]4c4ccccc4)C3)cc2)C[C@H]1C(=O)N[C@@H]1C[C@H]1c1ccccc1` [Compound 20, (3S,3′S,4S,4′S)-1,1′-Terephthaloylbis-(N^3,N^4-bis((1R,2S)-2-phenylcyclopropyl)pyrrolidine-3,4-dicarboxamide)], for which the EC50 (in the test on mouse macrophages (setting [2]); in test [1] (setting [3])) was greater than 5000 nM each time.

Turning to `O=C(N[C@H]1C[C@@H]1c1ccccc1)[C@@H]1CN(C(=O)C/C=C/CC(=O)N2C[C@@H](C(=O)N[C@H]3C[C@@H]3c3ccccc3)[C@H](C(=O)N[C@H]3C[C@@H]3c3ccccc3)C2)C[C@H]1C(=O)N[C@H]1C[C@@H]1c1ccccc1` [Compound 37, (3S,3′S,4S,4′S)-1,1′-((E)-Hex-3-enedoyl)bis-(N^3,N^4-bis((1S,2R)-2-phenylcyclopropyl)pyrrolidine-3,4-dicarboxamide)], the 50% effective concentration (EC50) (in the test with mouse macrophages (setting [4]); in test [1] (setting [5])) was greater than 5000 nM each time.

With `O=C(N[C@H]1C[C@@H]1c1ccccc1)[C@@H]1CN(C(=O)Cc2ccc(CC(=O)N3C[C@@H](C(=O)N[C@H]4C[C@@H]4c4ccccc4)[C@H](C(=O)N[C@H]4C[C@@H]4c4ccccc4)C3)cc2)C[C@H]1C(=O)N[C@H]1C[C@@H]1c1ccccc1` [Compound 48, (3S,3′S,4S,4′S)-1,1′-((1,4-Phenylene)diacetyl)-bis(N^3,N^4-bis((1S,2R)-2-phenylcyclopropyl)-pyrrolidine-3,4-dicarboxamide)], the concentration giving a half-maximal response (EC50) (in the test with mouse macrophages (setting [6]); in test [1] (setting [7])) was greater than 5000 nM in each case.

Turning to `O=C(N[C@H]1C[C@@H]1c1ccccc1)[C@@H]1CN(C(=O)[C@H]2CC[C@H](C(=O)N3C[C@@H](C(=O)N[C@H]4C[C@@H]4c4ccccc4)[C@H](C(=O)N[C@H]4C[C@@H]4c4ccccc4)C3)CC2)C[C@H]1C(=O)N[C@H]1C[C@@H]1c1ccccc1` [Compound 42, (3S,3′S,4S,4′S)-1,1′-(trans-1,4-Cyclohexane-dicarbonyl)bis(N^3,N^4-bis((1S,2R)-2-phenyl-cyclopropyl)pyrrolidine-3,4-dicarboxamide)], the EC50 (in the test on mouse macrophages (setting [4]); in test [1] (setting [5])) was greater than 5000 nM in each case.

`Cc1cc(C(=O)N2C[C@@H](C(=O)N[C@H]3C[C@@H]3c3ccccc3)[C@H](C(=O)N[C@H]3C[C@@H]3c3ccccc3)C2)c(C)cc1C(=O)N1C[C@@H](C(=O)N[C@H]2C[C@@H]2c2ccccc2)[C@H](C(=O)N[C@H]2C[C@@H]2c2ccccc2)C1` [Compound 63, (3S,3′S,4S,4′S)-1,1′-(2,5-Dimethylterephthaloyl)-bis(N^3,N^4-bis((1S,2R)-2-phenylcyclopropyl)pyrrolidine-3,4-dicarboxamide)]: the half-maximal effective concentration (EC50) (with mouse macrophages (setting [8]); in test [1] (setting [9])) was greater than 5000 nM throughout.

For the compound `CCCCCCCCCCCCCCNC(=O)[C@H]1CCN(C(=O)c2ccc(C(=O)N3C[C@@H](C(=O)N[C@H]4C[C@@H]4c4ccccc4)[C@H](C(=O)N[C@H]4C[C@@H]4c4ccccc4)C3)cc2)C1` [Compound 130, (3S,4S)—N^3,N^4-Bis((1S,2R)-2-phenylcyclopropyl)-1-(4-((S)-3-(tetradecylcarbamoyl)pyrrolidine-1-carbonyl)benzoyl)pyrrolidine-3,4-dicarboxamide], the half-maximal effective concentration (EC50) was 240 nM in the test on mouse macrophages (table of 125-132 (one lipid side chain, R and S), mouse macrophages, read-out: EC50 (nM) (mouse)); 4 nM in test [1] (THP-1, table of 125-132 (one lipid side chain, R and S), human THP-1 cells, read-out: EC50 (nM) (THP-1)).

With `O=C(N[C@H]1C[C@@H]1c1ccccc1)[C@@H]1CN(C(=O)c2ccc(C(=O)N3C[C@@H](C(=O)N[C@H]4C[C@@H]4c4ccccc4)[C@H](C(=O)N[C@H]4C[C@@H]4c4ccccc4)C3)s2)C[C@H]1C(=O)N[C@H]1C[C@@H]1c1ccccc1` [Compound 49, (3S,3′S,4S,4′S)-1,1′-(Thiophene-2,5-dicarbonyl)-bis(N^3,N^4-bis((1S,2R)-2-phenylcyclopropyl)-pyrrolidine-3,4-dicarboxamide)], the values for the EC50 (in the test on mouse macrophages (setting [8]); in test [1] (setting [9])) were greater than 5000 nM and 350 nM, respectively.

As for `O=C(N[C@H]1C[C@@H]1c1ccccc1)[C@@H]1CN(C(=O)c2cc(Cl)c(C(=O)N3C[C@@H](C(=O)N[C@H]4C[C@@H]4c4ccccc4)[C@H](C(=O)N[C@H]4C[C@@H]4c4ccccc4)C3)cc2Cl)C[C@H]1C(=O)N[C@H]1C[C@@H]1c1ccccc1` [Compound 61, (3S,3′S,4S,4′S)-1,1′-(2,5-Dichloroterephthaloyl)-bis(N^3,N^4-bis((1S,2R)-2-phenylcyclopropyl)pyrrolidine-3,4-dicarboxamide)], the EC50 in the test on mouse macrophages (setting [8]) is greater than 5000 nM; in test [1] (setting [9]), 360 nM.

As for `O=C(N[C@H]1C[C@@H]1c1ccccc1)[C@@H]1CN(C(=O)c2cccc3c(C(=O)N4C[C@@H](C(=O)N[C@H]5C[C@@H]5c5ccccc5)[C@H](C(=O)N[C@H]5C[C@@H]5c5ccccc5)C4)cccc23)C[C@H]1C(=O)N[C@H]1C[C@@H]1c1ccccc1` [Compound 47, (3S,3′S,4S,4′S)-1,1′-(Naphthalene-1,5-dicarbonyl)bis(N^3,N^4-bis((1S,2R)-2-phenylcyclopropyl)-pyrrolidine-3,4-dicarboxamide)], the concentration for a half-maximal effect (EC50) (in the test on mouse macrophages (setting [6]); in test [1] (setting [7])) was greater than 5000 nM throughout.

Take `O=C(N[C@@H]1C[C@H]1c1ccccc1)[C@H]1CN(C(=O)c2ccc(C(=O)N3C[C@H](C(=O)N[C@@H]4C[C@H]4c4ccccc4)[C@@H](C(=O)N[C@@H]4C[C@H]4c4ccccc4)C3)cc2)C[C@@H]1C(=O)N[C@@H]1C[C@H]1c1ccccc1` [Compound 21, (3R,3′R,4R,4′R)-1,1′-Terephthaloylbis-(N^3,N^4-bis((1R,2S)-2-phenylcyclopropyl)pyrrolidine-3,4-dicarboxamide)]: the EC50 (with mouse macrophages (setting [2]); in test [1] (setting [3])) was greater than 5000 nM each time.

As to `O=C(N[C@@H]1C[C@H]1c1ccccc1)[C@H]1CN(C(=O)c2ccc(C(=O)N3C[C@@H](C(=O)N[C@@H]4C[C@H]4c4ccccc4)[C@H](C(=O)N[C@@H]4C[C@H]4c4ccccc4)C3)cc2)C[C@@H]1C(=O)N[C@@H]1C[C@H]1c1ccccc1` [Compound 24, (3S,4S)-1-(4-((3R,4R)-3,4-Bis(((1R,2S)-2-phenyl-cyclopropyl)carbamoyl)-pyrrolidine-1-carbonyl)-benzoyl)—N^3,N^4-bis((1R,2S)-2-phenylcyclopropyl)-pyrrolidine-3,4-dicarboxamide], the 50% effective concentration (EC50) (in the test on mouse macrophages (setting [2]); in test [1] (setting [3])) was greater than 5000 nM throughout.

In the case of `O=C(N[C@H]1C[C@@H]1c1ccccc1)[C@H]1CN(C(=O)c2ccc(C(=O)N3C[C@@H](C(=O)N[C@@H]4C[C@H]4c4ccccc4)[C@H](C(=O)N[C@@H]4C[C@H]4c4ccccc4)C3)cc2)C[C@@H]1C(=O)N[C@H]1C[C@@H]1c1ccccc1` [Compound 23, (3R,4R)-1-(4-((3S,4S)-3,4-Bis(((1R,2S)-2-phenyl-cyclopropyl)carbamoyl)-pyrrolidine-1-carbonyl)-benzoyl)—N^3,N^4-bis((1S,2R)-2-phenylcyclopropyl)-pyrrolidine-3,4-dicarboxamide], the EC50 (with mouse macrophages (setting [2]); in test [1] (setting [3])) was greater than 5000 nM throughout.

The values are drawn from patent US11040959B2, “Diprovocims: a new and potent class of TLR agonists” (The Scripps Research Institute, priority 2016, dated 2021).
